# Patent publication US8778941B2, “TRPM8 antagonists and their use in treatments” (AMGEN Inc., priority 2011, dated 2014)
# Molecular target: T1, human TRPM8 (Homo sapiens, UniProt Q7Z2W7)
# T1 construct: expressed in transfected cells; host or cells: Chinese hamster ovary (CHO) cells, T-REx tetracycline-inducible expression system (Invitrogen), co-transfected with pcDNA3.1 jellyfish aequorin
# Assay: Luminescence readout assay for measuring intracellular calcium (aequorin), hTRPM8 antagonism
# Type: cell-based
# Conditions: CHO cell line expressing human TRPM8 and aequorin; activation by icilin, L-menthol or cold buffer (table does not say which)
# T1 sequence (Q7Z2W7 whole entry): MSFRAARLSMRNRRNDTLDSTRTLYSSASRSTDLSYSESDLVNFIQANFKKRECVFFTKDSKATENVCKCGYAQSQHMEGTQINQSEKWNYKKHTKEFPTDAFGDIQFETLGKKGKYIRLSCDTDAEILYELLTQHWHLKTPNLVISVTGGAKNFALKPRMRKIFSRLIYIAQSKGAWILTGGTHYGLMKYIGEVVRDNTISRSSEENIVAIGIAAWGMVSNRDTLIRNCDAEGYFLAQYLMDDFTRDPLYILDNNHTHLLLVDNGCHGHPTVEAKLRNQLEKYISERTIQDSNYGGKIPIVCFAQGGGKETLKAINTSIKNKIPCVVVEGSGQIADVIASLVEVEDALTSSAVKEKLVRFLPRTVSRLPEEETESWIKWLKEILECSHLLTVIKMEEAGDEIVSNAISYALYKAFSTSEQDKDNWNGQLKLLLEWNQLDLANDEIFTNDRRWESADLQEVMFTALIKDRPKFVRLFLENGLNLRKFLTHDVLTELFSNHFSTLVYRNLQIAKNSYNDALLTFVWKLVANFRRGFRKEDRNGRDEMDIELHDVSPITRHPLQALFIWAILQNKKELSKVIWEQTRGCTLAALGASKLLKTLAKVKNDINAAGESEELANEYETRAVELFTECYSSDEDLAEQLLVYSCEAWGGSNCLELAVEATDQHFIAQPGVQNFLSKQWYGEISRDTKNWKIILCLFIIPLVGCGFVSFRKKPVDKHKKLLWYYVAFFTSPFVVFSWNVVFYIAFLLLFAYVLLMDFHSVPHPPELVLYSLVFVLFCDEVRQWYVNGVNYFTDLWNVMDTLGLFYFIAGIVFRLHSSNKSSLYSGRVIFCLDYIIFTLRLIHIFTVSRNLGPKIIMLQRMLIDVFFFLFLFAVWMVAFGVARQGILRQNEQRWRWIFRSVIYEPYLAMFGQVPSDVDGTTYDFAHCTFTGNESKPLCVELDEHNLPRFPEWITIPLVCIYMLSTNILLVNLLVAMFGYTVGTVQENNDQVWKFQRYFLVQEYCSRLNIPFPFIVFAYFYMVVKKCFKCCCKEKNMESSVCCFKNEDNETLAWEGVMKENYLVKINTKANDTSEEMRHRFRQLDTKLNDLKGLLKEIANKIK
row,IC50 [µM],Compound
1,0.781,"C[C@@H](NC(=O)N[C@@H](c1ccc(C(F)(F)F)cc1)c1ncccc1C(F)(F)F)c1ccccc1 [Example 70, 1-((R)-1-phenylethyl)-3-((S)-(4-(trifluoro-methyl)-phenyl)(3-(trifluoro-methyl)-pyridin-2-yl)-methyl)urea (2,2,2-trifluoro-acetate)]"
2,0.287,"COc1cc(NC(=O)N[C@@H](c2ccc(C(F)(F)F)cc2)c2ncccc2C(F)(F)F)cc(OC)c1OC [Example 112, (S)-1-((4-(trifluoro-methyl)-phenyl)(3-(trifluoro-methyl)-pyridin-2-yl)-methyl)-3-(3,4,5-trimethoxy-phenyl)urea (2,2,2-trifluoro-acetate)]"
3,0.646,"CCOC(=O)c1cccc(NC(=O)N[C@@H](c2ccc(C(F)(F)F)cc2)c2ncccc2C(F)(F)F)c1 [Example 90, (S)-ethyl 3-(3-((4-(trifluoro-methyl)-phenyl)(3-(trifluoro-methyl)-pyridin-2-yl)-methyl)-ureido)-benzoate (2,2,2-trifluoro-acetate)]"
4,1.55,"CCOC(=O)c1ccc(NC(=O)N[C@@H](c2ccc(C(F)(F)F)cc2)c2ncccc2C(F)(F)F)cc1 [Example 187, (S)-ethyl 4-(3-((4-(trifluoro-methyl)phenyl) (3-(trifluoro-methyl)pyridin-2-yl)methyl)ureido)benzoate (2,2,2-trifluoro-acetate)]"
5,0.107,"CC#Cc1cccnc1[C@@H](NC(=O)NC(C)(C)C)c1ccc(C(F)(F)F)cc1 [Example 42, (S)-1-(tert-butyl)-3-((3-(prop-1-yn-1-yl)pyridin-2-yl)(4-(trifluoro-methyl)-phenyl)-methyl)urea]"
6,0.062,"O=C(Nc1cncnc1)N[C@@H](c1ccc(C(F)(F)F)c(F)c1)c1ncccc1C(F)(F)F [Example 155, (S)-1-((3-fluoro-4-(trifluoro-methyl)-phenyl)(3-(trifluoro-methyl)-pyridin-2-yl)-methyl)-3-(pyrimidin-5-yl)urea (2,2,2-trifluoro-acetate)]"
7,0.663,"CC(C)(C)OC(=O)N[C@@H](c1ccc(C(F)(F)F)cc1)c1ccccn1 [Example 169, (S)-tert-Butyl(pyridin-2-yl(4-(trifluoromethyl)phenyl)methyl)-carbamate 2,2,2-trifluoroacetate]"
8,0.767,"COc1cccc([C@H](C)NC(=O)N[C@@H](c2ccc(C(F)(F)F)cc2)c2ncccc2C(F)(F)F)c1 [Example 84, 1-((S)-1-(3-methoxy-phenyl)ethyl)-3-((S)-(4-(trifluoro-methyl)-phenyl)(3-(trifluoro-methyl)-pyridin-2-yl)-methyl)urea (2,2,2-trifluoro-acetate)]"
9,0.067,"O=C(Nc1cccnc1)N[C@@H](c1ccc(C(F)(F)F)cc1)c1ncccc1Br [Example 28, (S)-1-((3-bromopyridin-2-yl)(4-(trifluoro-methyl)-phenyl)-methyl)-3-(pyridin-3-yl)-urea]"
10,0.028,"C=CCc1cccnc1[C@@H](NC(=O)N[C@@H](C)C(F)(F)F)c1ccc(C(F)(F)F)cc1 [Example 158, 1-((S)-(3-allylpyridin-2-yl)(4-(trifluoro-methyl)-phenyl)-methyl)-3-((S)-1,1,1-trifluoro-propan-2-yl)-urea]"
11,0.098,"O=C(Nc1ccc(F)cc1)N[C@@H](c1ccc(C(F)(F)F)cc1)c1ncccc1C(F)(F)F [Example 47, (S)-1-(4-fluorophenyl)-3-((4-(trifluoro-methyl)-phenyl)(3-(trifluoro-methyl)-pyridin-2-yl)-methyl)urea]"
12,0.211,"O=C(N[C@@H](c1ccc(OC(F)(F)F)c(F)c1)c1ncccc1F)OC1CCOCC1 [Example 176, (S)-tetrahydro-2H-pyran-4-yl ((3-fluoro-4-(trifluoromethoxy)phenyl)(3-fluoropyridin-2-yl)methyl)carbamate]"
13,2,"O=C(N[C@@H](c1ccc(C(F)(F)F)cc1)c1ncccc1C(F)(F)F)N[C@H]1CCc2ccccc21 [Example 129, 1-((S)-2,3-dihydro-1H-inden-1-yl)-3-((S)-(4-(trifluoro-methyl)-phenyl)(3-(trifluoro-methyl)-pyridin-2-yl)-methyl)urea (2,2,2-trifluoro-acetate)]"
14,0.067,"CCCc1cccnc1[C@@H](NC(=O)Nc1cccnc1)c1ccc(C(F)(F)F)cc1 [Example 168, (S)-1-((3-Propylpyridin-2-yl)(4-(trifluoromethyl)phenyl)-methyl)-3-(pyridin-3-yl)urea]"
15,1.11,"Cc1cc(C)c(NC(=O)N[C@@H](c2ccc(C(F)(F)F)cc2)c2ncccc2C(F)(F)F)c(C)c1 [Example 186, (S)-1-mesityl-3-((4-(trifluoro-methyl)phenyl) (3-(trifluoro-methyl)pyridin-2-yl)methyl)urea (2,2,2-trifluoro-acetate)]"
16,0.259,"O=C(Nc1cccnc1)N[C@@H](c1cnc2ccccc2c1)c1ncccc1C(F)(F)F [Example 6, (S)-1-(pyridin-3-yl)-3-(quinolin-3-yl(3-(trifluoro-methyl)-pyridin-2-yl)-methyl)urea]"
17,0.558,"O=C(Nc1cc(F)cc(F)c1)N[C@@H](c1ccc(C(F)(F)F)cc1)c1ncccc1C(F)(F)F [Example 49, (S)-1-(3,5-difluoro-phenyl)-3-((4-(trifluoro-methyl)-phenyl)(3-(trifluoro-methyl)-pyridin-2-yul)-methyl)urea]"
18,0.163,"O=C(NCc1cccc(F)c1)N[C@@H](c1ccc(C(F)(F)F)cc1)c1ncccc1C(F)(F)F [Example 72, (S)-1-(3-fluorobenzyl)-3-((4-(trifluoro-methyl)-phenyl)(3-(trifluoro-methyl)-pyridin-2-yl)-methyl)urea (2,2,2-trifluoro-acetate)]"
19,0.172,"O=C(Nc1cccnc1)N[C@@H](c1cnc2cccc(Cl)c2c1)c1ncccc1C(F)(F)F [Example 10, (S)-1-((5-chloroquinolin-3-yl)(3-(trifluoro-methyl)-pyridin-2-yl)-methyl)-3-(pyridin-3-yl)-urea]"
20,0.407,"COc1ncc(NC(=O)N[C@@H](c2ccc(C(F)(F)F)cc2)c2ncccc2C(F)(F)F)cn1 [Example 159, (S)-1-(2-Methoxypyrimidin-5-yl)-3-((4-(trifluoromethyl)-phenyl)(3-(trifluoromethyl)pyridin-2-yl)methyl)urea]"
21,0.527,"COC(=O)c1cc(NC(=O)N[C@@H](c2ccc(C(F)(F)F)cc2)c2ncccc2C(F)(F)F)cc(C(=O)OC)c1 [Example 103, (S)-dimethyl 5-(3-((4-(trifluoro-methyl)-phenyl)(3-(trifluoro-methyl)-pyridin-2-yl)-methyl)-ureido)-isophthalate (2,2,2-trifluoro-acetate)]"
22,0.123,"C[C@H](NC(=O)N[C@@H](c1ccc(C(F)(F)F)cc1)c1ncccc1C(F)(F)F)c1ccccc1 [Example 107, 1-((S)-1-phenylethyl)-3-((S)-(4-(trifluoro-methyl)-phenyl)(3-(trifluoro-methyl)-pyridin-2-yl)-methyl)urea (2,2,2-trifluoro-acetate)]"
23,1.9,"C[C@H](NC(=O)N[C@@H](c1ccc(C(F)(F)F)cc1)c1ncccc1C(F)(F)F)c1cccc2ccccc12 [Example 33, 1-((S)-1-(naphthalen-1-yl)ethyl)-3-((S)-(4-(trifluoro-methyl)-phenyl)(3-(trifluoro-methyl)-pyridin-2-yl)-methyl)urea (2,2,2-trifluoro-acetate)]"
